NC(=O)c1ccc(N)cc1
solubility (mole fraction)
Conditions	283.15 K	288.15 K	293.15 K	298.15 K	303.15 K	308.15 K	313.15 K	318.15 K	323.15 K
in acetone	0.00745	0.00795	0.0086	0.00956	0.0105	0.0118	0.0137	0.0154	0.0176
in acetonitrile	0.00193	0.00204	0.00225	0.00251	0.00298	0.0036	0.00447	0.00546	0.00661
in ethanol	0.00621	0.00649	0.00697	0.00777	0.00883	0.0104	0.0121	0.0141	0.016
in ethyl acetate	0.000539	0.000606	0.000697	0.000845	0.00103	0.00131	0.00166	0.00207	0.00257
in isobutanol	0.00239	0.00249	0.00263	0.0028	0.00309	0.00342	0.00384	0.00422	0.00467
in isopropanol	0.00331	0.00354	0.00393	0.00431	0.00487	0.00577	0.00677	0.00819	0.00965
in methanol	0.0121	0.0132	0.0145	0.0163	0.0188	0.0214	0.0246	0.0287	0.0328
in methyl acetate	0.00147	0.00154	0.0017	0.00194	0.00217	0.00247	0.00274	0.00311	0.00347
in n-butanol	0.00257	0.00274	0.00292	0.00313	0.00345	0.00375	0.00421	0.00468	0.00514
in n-butyl acetate	0.000749	0.000819	0.000974	0.00121	0.00152	0.00186	0.00229	0.00275	0.00331
in n-propanol	0.00401	0.00411	0.0044	0.00496	0.00585	0.00711	0.00839	0.01	0.0117
in water	0.000858	0.000983	0.00118	0.00146	0.00184	0.00229	0.00281	0.00364	0.00449
